According to PubChem BioAssay (NCI):
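GI50 = concentration required for 50% inhibition of growth. TGI denotes the concentration required for complete inhibition of growth.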

Assays:
Assay in all cases: DTP human tumour cell line panel, 384-well format
UACC-257 melanoma = test system: UACC-257 melanoma
M14 melanoma = test system: M14 melanoma
OVCAR-4 ovarian = test system: OVCAR-4 ovarian
SN12C renal = test system: SN12C renal
SNB-19 CNS = test system: SNB-19 CNS
MDA-MB-435 melanoma = test system: MDA-MB-435 melanoma
UO-31 renal = test system: UO-31 renal
HT29 colon = test system: HT29 colon
DU-145 prostate = test system: DU-145 prostate
MALME-3M melanoma = test system: MALME-3M melanoma
KM12 colon = test system: KM12 colon
MDA-MB-231 breast = test system: MDA-MB-231 breast
NCI-H460 NSCLC = test system: NCI-H460 NSCLC
BT-549 breast = test system: BT-549 breast
MOLT-4 leukemia = test system: MOLT-4 leukemia
NCI-H322M lung = test system: NCI-H322M lung
HCC-2998 colon = test system: HCC-2998 colon
SF-295 CNS = test system: SF-295 CNS
LOX IMVI melanoma = test system: LOX IMVI melanoma
HL-60(TB) leukemia = test system: HL-60(TB) leukemia
OVCAR-3 ovarian = test system: OVCAR-3 ovarian
SK-OV-3 ovarian = test system: SK-OV-3 ovarian
IGROV1 ovarian = test system: IGROV1 ovarian
UACC-62 melanoma = test system: UACC-62 melanoma
HCT-116 colon = test system: HCT-116 colon
MCF7 breast = test system: MCF7 breast
RXF 393 renal = test system: RXF 393 renal
HCT-15 colon = test system: HCT-15 colon
NCI-H522 lung = test system: NCI-H522 lung

Structure (SMILES): C=CC(=O)N1CCN(c2nc(=O)n(-c3c(C)ccnc3C(C)C)c3nc(-c4c(O)cccc4F)c(F)cc23)[C@@H](C)C1
- GI50 (UACC-257 melanoma): 37.1 µM
- TGI (UACC-257 melanoma): > 100 µM
- GI50 (M14 melanoma): 32.1 µM
- TGI (M14 melanoma): > 79.9 µM
- GI50 (OVCAR-4 ovarian): 43.8 µM
- TGI (OVCAR-4 ovarian): > 100 µM
- GI50 (SN12C renal): 50.3 µM
- TGI (SN12C renal): > 100 µM
- GI50 (SNB-19 CNS): 53.9 µM
- TGI (SNB-19 CNS): > 100 µM
- GI50 (MDA-MB-435 melanoma): 62.4 µM
- TGI (MDA-MB-435 melanoma): > 100 µM
- GI50 (UO-31 renal): 69.7 µM
- TGI (UO-31 renal): > 100 µM
- GI50 (HT29 colon): 33.2 µM
- TGI (HT29 colon): > 100 µM
- GI50 (DU-145 prostate): 25.3 µM
- TGI (DU-145 prostate): 74.7 µM
- GI50 (MALME-3M melanoma): 14.7 µM
- TGI (MALME-3M melanoma): 35.3 µM
- GI50 (KM12 colon): 31.5 µM
- TGI (KM12 colon): > 75.8 µM
- GI50 (MDA-MB-231 breast): 24.3 µM
- TGI (MDA-MB-231 breast): 57 µM
- GI50 (NCI-H460 NSCLC): 28.2 µM
- TGI (NCI-H460 NSCLC): 65.4 µM
- GI50 (BT-549 breast): 15.7 µM
- TGI (BT-549 breast): 35.2 µM
- GI50 (MOLT-4 leukemia): 9.94 µM
- TGI (MOLT-4 leukemia): 22.2 µM
- GI50 (NCI-H322M lung): 44.6 µM
- TGI (NCI-H322M lung): > 100 µM
- GI50 (HCC-2998 colon): 15 µM
- TGI (HCC-2998 colon): 29.6 µM
- GI50 (SF-295 CNS): 33.4 µM
- TGI (SF-295 CNS): > 88.3 µM
- GI50 (LOX IMVI melanoma): 16.6 µM
- TGI (LOX IMVI melanoma): 31.8 µM
- GI50 (HL-60(TB) leukemia): 19.8 µM
- TGI (HL-60(TB) leukemia): 35.5 µM
- GI50 (OVCAR-3 ovarian): 22 µM
- TGI (OVCAR-3 ovarian): 50.8 µM
- GI50 (SK-OV-3 ovarian): 46.5 µM
- TGI (SK-OV-3 ovarian): > 100 µM
- GI50 (IGROV1 ovarian): 27 µM
- TGI (IGROV1 ovarian): 71 µM
- GI50 (UACC-62 melanoma): 43.5 µM
- TGI (UACC-62 melanoma): > 100 µM
- GI50 (HCT-116 colon): 17.5 µM
- TGI (HCT-116 colon): 35.6 µM
- GI50 (MCF7 breast): 36.9 µM
- TGI (MCF7 breast): > 100 µM
- GI50 (RXF 393 renal): 4.34 µM
- TGI (RXF 393 renal): 14.3 µM
- GI50 (HCT-15 colon): 27.2 µM
- TGI (HCT-15 colon): > 65.3 µM
- GI50 (NCI-H522 lung): 21.1 µM
